Laboratory results: the supplement of paper PMC4862054

Tests used:
Details in all cases: incubation time: 72 h
BT-474 [1] = experiment: normalised response (% of control), CellTiter-Glo; higher = more viable cells (100 = DMSO, 0 = benzethonium chloride kill control)
Procedure, shortened: (§1)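 CellTox Green fluorescence (485/520 nm) and, after 10 min at room temperature, CellTiter-Glo luminescence were read from breast cancer cell lines incubated 72 h in 384-well plates. Cells were seeded as 20 µl suspension onto compound at 5 concentrations in 10-fold steps over a 10,000-fold range chosen per compound. Each plate was normalised to 0.1 % DMSO (100) and a positive kill control (0). Values are normalised signals, one per concentration.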

BT-549 [2] = experiment: as above
Procedure, shortened: as §1

CAL-120 [3] = experiment: as above
Procedure, shortened: as §1

CAL-148 [4] = experiment: as above
Procedure, shortened: as §1

CAL-51 [5] = experiment: as above
Procedure, shortened: as §1

CAL-85-1 [6] = experiment: as above
Procedure, shortened: as §1

DU-4475 [7] = experiment: as above
Procedure, shortened: as §1

HCC1143 [8] = experiment: as above
Procedure, shortened: as §1

HCC1599 [9] = experiment: as above
Procedure, shortened: as §1

HCC1937 [10] = experiment: as above
Procedure, shortened: as §1

HDQ-P1 [11] = experiment: as above
Procedure, shortened: as §1

Hs578T [12] = experiment: as above
Procedure, shortened: as §1

MCF-10A = experiment: as above
Procedure, shortened: as §1

MDA-MB-231 [13] = experiment: as above
Procedure, shortened: as §1

MDA-MB-436 [14] = experiment: as above
Procedure, shortened: as §1

MDA-MB-453 [15] = experiment: as above
Procedure, shortened: as §1

MDA-MB-468 [16] = experiment: as above
Procedure, shortened: as §1

MFM-223 [17] = experiment: as above
Procedure, shortened: as §1

SK-BR-3 [18] = experiment: as above
Procedure, shortened: as §1

BT-474 [19] = experiment: normalised viability (% of control), CellTiter-Blue; higher = more viable cells (100 = DMSO, 0 = benzethonium chloride kill control)
Procedure, shortened: (§2)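 Vehicle (100) and a positive kill control (0) anchored the normalisation of each plate, and Z'-factor was used for quality control. Breast cancer cell lines in 20 µl suspension were incubated 72 h over compound in 5 µl medium in 384-well plates, followed by CellTiter-Blue at 560/590 nm. The value is normalised viability at a single listed concentration of the series.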

BT-549 [20] = experiment: as above
Procedure, shortened: as §2

CAL-120 [21] = experiment: as above
Procedure, shortened: as §2

CAL-148 [22] = experiment: as above
Procedure, shortened: as §2

CAL-51 [23] = experiment: as above
Procedure, shortened: as §2

CAL-85-1 [24] = experiment: as above
Procedure, shortened: as §2

DU-4475 [25] = experiment: as above
Procedure, shortened: as §2

HCC1143 [26] = experiment: as above
Procedure, shortened: as §2

HCC1599 [27] = experiment: as above
Procedure, shortened: as §2

HCC1937 [28] = experiment: as above
Procedure, shortened: as §2

HDQ-P1 [29] = experiment: as above
Procedure, shortened: as §2

Hs578T [30] = experiment: as above
Procedure, shortened: as §2

MDA-MB-231 [31] = experiment: as above
Procedure, shortened: as §2

MDA-MB-436 [32] = experiment: as above
Procedure, shortened: as §2

MDA-MB-453 [33] = experiment: as above
Procedure, shortened: as §2

MDA-MB-468 [34] = experiment: as above
Procedure, shortened: as §2

MFM-223 [35] = experiment: as above
Procedure, shortened: as §2

SK-BR-3 [36] = experiment: as above
Procedure, shortened: as §2

`O=c1[nH]c(=O)n([C@H]2C[C@H](O)[C@@H](CO)O2)cc1F` [Floxuridine] (1 nM) gave a normalised response (BT-474 [1]) of 104%, a normalised response (BT-549 [2]) of 102% and a normalised response (CAL-120 [3]) of 101%. It also gave a normalised response (CAL-148 [4]) of 97.7%, a normalised response (CAL-51 [5]) of 120% and a normalised response (CAL-85-1 [6]) of 95.9%. For the same compound, the normalised response (DU-4475 [7]) was 103%, the normalised response (HCC1143 [8]) was 97.6% and the normalised response (HCC1599 [9]) was 96.9%. The normalised response (HCC1937 [10]) was 99.1%, the normalised response (HDQ-P1 [11]) was 102% and the normalised response (Hs578T [12]) was 103%. It also gave a normalised response (MCF-10A) of 115%, a normalised response (MDA-MB-231 [13]) of 107% and a normalised response (MDA-MB-436 [14]) of 132%. The normalised response (MDA-MB-453 [15]) was 104%, the normalised response (MDA-MB-468 [16]) was 105% and the normalised response (MFM-223 [17]) was 110%. For the same compound, the normalised response (SK-BR-3 [18]) was 107%, the normalised viability (BT-474 [19]) was 91.2% and the normalised viability (BT-549 [20]) was 123%. It also gave a normalised viability (CAL-120 [21]) of 100%, a normalised viability (CAL-148 [22]) of 102% and a normalised viability (CAL-51 [23]) of 98.2%. The normalised viability (CAL-85-1 [24]) was 94.1%, the normalised viability (DU-4475 [25]) was 104% and the normalised viability (HCC1143 [26]) was 98.6%. It also gave a normalised viability (HCC1599 [27]) of 95.7%, a normalised viability (HCC1937 [28]) of 89.2% and a normalised viability (HDQ-P1 [29]) of 108%. The normalised viability (Hs578T [30]) was 130%, the normalised viability (MDA-MB-231 [31]) was 99% and the normalised viability (MDA-MB-436 [32]) was 112%. It also gave a normalised viability (MDA-MB-453 [33]) of 108%, a normalised viability (MDA-MB-468 [34]) of 99.9% and a normalised viability (MFM-223 [35]) of 103%. For the same compound, the normalised viability (SK-BR-3 [36]) was 97.2%.

`O=c1[nH]cc(F)c(=O)[nH]1` [Fluorouracil] (1 nM) gave a normalised response (BT-474 [1]) of 99.5%, a normalised response (BT-549 [2]) of 107% and a normalised response (CAL-120 [3]) of 108%. It also gave a normalised response (CAL-148 [4]) of 105%, a normalised response (CAL-51 [5]) of 124% and a normalised response (CAL-85-1 [6]) of 105%. The normalised response (DU-4475 [7]) was 100%, the normalised response (HCC1143 [8]) was 102% and the normalised response (HCC1599 [9]) was 95.8%. For the same compound, the normalised response (HCC1937 [10]) was 95.1%, the normalised response (HDQ-P1 [11]) was 105% and the normalised response (Hs578T [12]) was 106%. The normalised response (MCF-10A) was 113%, the normalised response (MDA-MB-231 [13]) was 106% and the normalised response (MDA-MB-436 [14]) was 119%. It also gave a normalised response (MDA-MB-453 [15]) of 110%, a normalised response (MDA-MB-468 [16]) of 97.2% and a normalised response (MFM-223 [17]) of 110%. The normalised response (SK-BR-3 [18]) was 108%, the normalised viability (BT-474 [19]) was 107% and the normalised viability (BT-549 [20]) was 114%. The normalised viability (CAL-120 [21]) was 103%, the normalised viability (CAL-148 [22]) was 109% and the normalised viability (CAL-51 [23]) was 100%. For the same compound, the normalised viability (CAL-85-1 [24]) was 106%, the normalised viability (DU-4475 [25]) was 107% and the normalised viability (HCC1143 [26]) was 102%. It also gave a normalised viability (HCC1599 [27]) of 80.1%, a normalised viability (HCC1937 [28]) of 90.6% and a normalised viability (HDQ-P1 [29]) of 110%. The normalised viability (Hs578T [30]) was 122%, the normalised viability (MDA-MB-231 [31]) was 112% and the normalised viability (MDA-MB-436 [32]) was 94.8%. It also gave a normalised viability (MDA-MB-453 [33]) of 115%, a normalised viability (MDA-MB-468 [34]) of 113% and a normalised viability (MFM-223 [35]) of 106%. The normalised viability (SK-BR-3 [36]) was 103%.

`C[C@@H]1C=C2C(=O)O[C@@H]3CC[C@H](C1)[C@]23O` [Galiellalactone] (5 nM) gave a normalised response (BT-474 [1]) of 106%, a normalised response (BT-549 [2]) of 101% and a normalised response (CAL-120 [3]) of 105%. It also gave a normalised response (CAL-148 [4]) of 107%, a normalised response (CAL-51 [5]) of 104% and a normalised response (CAL-85-1 [6]) of 98.1%. The normalised response (DU-4475 [7]) was 97.2%, the normalised response (HCC1143 [8]) was 105% and the normalised response (HCC1599 [9]) was 102%. It also gave a normalised response (HCC1937 [10]) of 98%, a normalised response (HDQ-P1 [11]) of 107% and a normalised response (Hs578T [12]) of 107%. It also gave a normalised response (MCF-10A) of 111%, a normalised response (MDA-MB-231 [13]) of 103% and a normalised response (MDA-MB-436 [14]) of 107%. It also gave a normalised response (MDA-MB-453 [15]) of 108%, a normalised response (MDA-MB-468 [16]) of 108% and a normalised response (MFM-223 [17]) of 107%. For the same compound, the normalised response (SK-BR-3 [18]) was 108%, the normalised viability (BT-474 [19]) was 105% and the normalised viability (BT-549 [20]) was 112%. It also gave a normalised viability (CAL-120 [21]) of 81.3%, a normalised viability (CAL-148 [22]) of 115% and a normalised viability (CAL-51 [23]) of 106%. It also gave a normalised viability (CAL-85-1 [24]) of 94.9%, a normalised viability (DU-4475 [25]) of 104% and a normalised viability (HCC1143 [26]) of 98.9%. It also gave a normalised viability (HCC1599 [27]) of 88.1%, a normalised viability (HCC1937 [28]) of 84.3% and a normalised viability (HDQ-P1 [29]) of 120%. It also gave a normalised viability (Hs578T [30]) of 109%, a normalised viability (MDA-MB-231 [31]) of 93.7% and a normalised viability (MDA-MB-436 [32]) of 94.6%. The normalised viability (MDA-MB-453 [33]) was 97%, the normalised viability (MDA-MB-468 [34]) was 96.7% and the normalised viability (MFM-223 [35]) was 102%. The normalised viability (SK-BR-3 [36]) was 94%.

In the case of `COC1=C2C[C@@H](C)C[C@H](OC)[C@H](O)[C@@H](C)/C=C(\C)[C@H](OC(N)=O)[C@@H](OC)/C=C\C=C(/C)C(=O)NC(=CC1=O)C2=O` [Geldanamycin] (1 nM), the normalised response (BT-474 [1]) is reported as 105%, the normalised response (BT-549 [2]) is reported as 101% and the normalised response (CAL-120 [3]) is reported as 107%. The normalised response (CAL-148 [4]) was 129%, the normalised response (CAL-51 [5]) was 100% and the normalised response (CAL-85-1 [6]) was 101%. The normalised response (DU-4475 [7]) was 102%, the normalised response (HCC1143 [8]) was 107% and the normalised response (HCC1599 [9]) was 101%. For the same compound, the normalised response (HCC1937 [10]) was 101%, the normalised response (HDQ-P1 [11]) was 101% and the normalised response (Hs578T [12]) was 108%. The normalised response (MCF-10A) was 105%, the normalised response (MDA-MB-231 [13]) was 103% and the normalised response (MDA-MB-436 [14]) was 107%. For the same compound, the normalised response (MDA-MB-453 [15]) was 127%, the normalised response (MDA-MB-468 [16]) was 109% and the normalised response (MFM-223 [17]) was 103%. For the same compound, the normalised response (SK-BR-3 [18]) was 110%, the normalised viability (BT-474 [19]) was 112% and the normalised viability (BT-549 [20]) was 96.8%. It also gave a normalised viability (CAL-120 [21]) of 92.6%, a normalised viability (CAL-148 [22]) of 119% and a normalised viability (CAL-51 [23]) of 105%. It also gave a normalised viability (CAL-85-1 [24]) of 94.6%, a normalised viability (DU-4475 [25]) of 132% and a normalised viability (HCC1143 [26]) of 95.3%. For the same compound, the normalised viability (HCC1599 [27]) was 87.6%, the normalised viability (HCC1937 [28]) was 92.3% and the normalised viability (HDQ-P1 [29]) was 124%. The normalised viability (Hs578T [30]) was 130%, the normalised viability (MDA-MB-231 [31]) was 96% and the normalised viability (MDA-MB-436 [32]) was 110%. It also gave a normalised viability (MDA-MB-453 [33]) of 108%, a normalised viability (MDA-MB-468 [34]) of 103% and a normalised viability (MFM-223 [35]) of 99.9%. It also gave a normalised viability (SK-BR-3 [36]) of 103%.
